Test results taken from patent US20090131513A1, “ANTI-INFLAMMATORY MODALITIES” (Novogen Research Pty Ltd., priority 2005, published 2009).

Columns and labels:
[1] = Anti inflammatory activity (test not specified)
[2] = system: contractile response of the aortic ring to noradrenaline; assay: Vasodilatory activity in the rat aortic ring assay; design: species or system rat (Sprague-Dawley); conditions: test compound 1 μg/ml
Protocol: The vasodilatory capacity of test compounds was examined ex vivo using the rat aortic ring assay.
Male Sprague-Dawley rats (250±50 g) were euthanized with 80% CO2 and 20% O2. The thoracic aorta was excised and quickly mounted in organ-baths as described (Chin-Dusting et al. 2001). Full concentration-contractile curves were obtained to noradrenaline ([…]) with and without test compounds delivered at a concentration of 1 μg/ml. Experiments were repeated in n=5 different rings from 5 different animals. Only one compound at any one concentration was tested on any one ring from any one animal. Sigmoidal dose response curves were fitted for the data and the logEC50 calculated (Prism 4, GraphPad Software). The difference in these values between the presence and absence of test compound was calculated using a two-tailed paired t test. The effects of β-oestrodiol and vehicle alone were examined as a positive and negative control respectively.

female BALB/c mice = assay: Absence of gastrointestinal toxicity, gavage for 10 days; format: in vivo; conditions: 20 mg/kg daily by gavage for 10 days
Protocol: Compound 2 at 5 mg/kg (n=3) or vehicle (PEG 400:PBS1:1; n=2) was administered via gavage to female BALB/c mice for 10 days. […] Histology of cecum and colon were normal.
The diastereoisomeric mixture of Compounds 3a and 3b in PEG 400:PBS1:1 was administered to 7 week old female BALB/c mice (n=8) by gavage at 20 mg/kg daily for 10 days. There was no vehicle control group for comparison.
Compound 4 at 5 mg/kg (n=3) or vehicle (n=2, PEG:PBS 1:1) was administered via gavage to female BALB/c mice for 10 days. […] Histology of cecum and colon were normal.

NFκB promoter activity = assay: Inhibition of NFκB promoter activity (β-lactamase reporter) in TNFα-stimulated THP-1 cells; format: cell-based, human; conditions: 5 h
Protocol: Human macrophage THP-1 cells, modified to include the β-lactamase reporter gene, were seeded into wells of a 96-well plate (50×10^3 cells/well) in the presence of RPMI 1640 medium (70 μl). TNFα (7.5 ng/ml) and human sera (final concentration of 20%) were added to each well. Plates were incubated for 5 h at 37° C. to allow for NFkB-stimulated β-lactamase production. LiveBLAzer™ FRET B/G Substrate (CCF4-AM) was then added to assay for β-lactamase activity. Once CCFA-AM enters a cell, it is converted to negatively charged CCF4 by endogenous esterases. Excitation of this substrate at 409 nm leads to efficient FRET between the coumarin and fluorescein moieties, resulting in a green fluorescence detectable at 530 nm. The presence of β-lactamase leads to cleavage of CCF4 and results in a loss of FRET, resulting in a robust blue fluorescent signal detectable at 460 nm. Thus, activity of beta-lactamase (a marker of NFkB-promoter activity) is measured as a product to substrate ratio (blue/green fluorescence ratio: 460 nm/530 nm).

TX synthase (TXS) = biological target: T1, TX synthase (TXS) (Homo sapiens, UniProt P24557); assay: TXB2 synthesis following addition of exogenous PGH2 to U937 cells; format: cell-based; conditions: 1, 10, 100 μM, undifferentiated U937 cells, PGH2 5 μM
T1 construct: endogenous in cells; host or cells: undifferentiated U937 cells
T1 sequence (P24557 1-533): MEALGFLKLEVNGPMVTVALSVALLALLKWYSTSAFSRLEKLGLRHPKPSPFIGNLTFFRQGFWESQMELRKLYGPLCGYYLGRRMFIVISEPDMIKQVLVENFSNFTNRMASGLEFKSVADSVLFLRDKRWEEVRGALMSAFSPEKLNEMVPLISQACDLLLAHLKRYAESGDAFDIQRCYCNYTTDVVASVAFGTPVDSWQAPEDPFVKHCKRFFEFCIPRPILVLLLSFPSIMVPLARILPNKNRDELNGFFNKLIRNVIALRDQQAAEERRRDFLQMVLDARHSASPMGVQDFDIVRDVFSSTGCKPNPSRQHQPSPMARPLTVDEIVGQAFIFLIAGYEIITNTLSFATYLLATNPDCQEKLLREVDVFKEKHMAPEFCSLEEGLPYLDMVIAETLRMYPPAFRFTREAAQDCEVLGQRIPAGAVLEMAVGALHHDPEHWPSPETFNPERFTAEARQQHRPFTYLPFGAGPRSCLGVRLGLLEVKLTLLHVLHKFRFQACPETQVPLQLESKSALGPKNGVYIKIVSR
Protocol: To examine effects of test compounds directly on TX synthase (TXS), a different assay system was used. Whereas arachidonic acid (AA) is the substrate for COX, PGH2 is the substrate for TX synthase. To examine directly the effect of these compounds on TXS, exogenous ? elow:
Test compounds at 0 μM, 1 μM, 10 μM and 100 μM (in DMSO) were incubated with undifferentiated U937 cells (6×10^6/ml) for 30 min at 37° C., after which PGH2 (5 μM) was added. After incubation for 10 min, the reaction was terminated by centrifugation and the supernatants were collected and TXB2 production was measured in triplicate by RIA. ANOVA followed by Newman-Keuls multiple comparisons test was used to examine differences between doses and the control values. A statistical significance level of 0.05 was used and differences from control values are indicated by an asterisk (*).

| Compound | anti inflammatory activity [1] | contractile response (logEC50) of the aortic ring to noradrenaline compared with vehicle [2] | mean increase in body weight over the 10 days, of the starting weight (female BALB/c mice) | body weight, in words (female BALB/c mice; no vehicle group) | inhibition of NFκB compared to vehicle control (NFκB promoter activity) | thromboxane synthase inhibition (TXB2 synthesis after exogenous PGH2), selectivity in words (TX synthase (TXS)) |
| --- | --- | --- | --- | --- | --- | --- |
| Oc1ccc(C23COc4cc(O)ccc4C2O3)cc1 (stereo not drawn) [3,4-epoxy-4′,7-dihydroxyisoflavan] | shows anti inflammatory activity | – | – | – | – | – |
| Cc1c(O)ccc2c1OCC(c1ccc(O)cc1)C2O (stereo not drawn) [Compound 3] | – | significantly inhibited | 5% | all mice maintained body weight | significantly (p<0.001) inhibited | less specific |
